Data: patent US9850283B2, “Macrocyclic inhibitors of the PD-1/PD-L1 and CD80(B7-1)/PD-L1 protein/protein interactions” (BRISTOL-MYERS SQUIBB COMPANY, priority 2013, dated 2017)
Starred links: 1 amine or outer side, 2 acyl side, 3 side chain; linkers in the order of their positions; H or OH if unused. Positions of bridges follow the written chain, without caps; N, C: chain ends. Non-standard residues stand in square brackets, D forms with d. Residues, ends and D or L forms follow the SMILES beside them. ξ: configuration not given here. *: point of attachment. ξPro(4S-NH2) = O=C(C1C[C@H](N[*:3])CN1[*:1])[*:2]; Phe(4-CHF2) = N[C@@H](Cc1ccc(C(F)F)cc1)C(=O)O; Trp(7-aza) = N[C@@H](Cc1c[nH]c2ncccc12)C(=O)O; ξTrp(5-F) = NC(Cc1c[nH]c2ccc(F)cc12)C(=O)O; NMeW = CN[C@@H](Cc1c[nH]c2ccccc12)C(=O)O; Pro(4S-NH2) = N[C@@H]1CN[C@H](C(=O)O)C1; Pro(4,4-F2) = O=C(O)[C@@H]1CC(F)(F)CN1; Bta = N[C@@H](Cc1csc2ccccc12)C(=O)O; Cyclobutanecarbonyl = O=C(C1CCC1)*; Hyp = O=C(O)[C@@H]1C[C@@H](O)CN1; ξBta = NC(Cc1csc2ccccc12)C(=O)O; NMeNle = CCCC[C@H](NC)C(=O)O; NMeA = CN[C@@H](C)C(=O)O; Dab = NCC[C@H](N)C(=O)O; Dap = NC[C@H](N)C(=O)O; ξOrn = NCCCC(N)C(=O)O; ξP = O=C(O)C1CCCN1; Sar = CNCC(=O)O

Key:
[1] = biological target: T1, LK35.2-hPD-L1 cells / PE-labeled PD-1-Ig (Homo sapiens, UniProt Q9NZQ7); test: LK35.2-hPD-L1 cell binding high-content screening assay; assay type: cell-based; settings: cluster symbol; cell line of CBA not given (LK35.2-hPD-L1 or 293T-hPD-L1); read-out: CBA IC50 cluster
T1 construct: expressed in transfected cells; host or cells: LK35.2 mouse B cell line
T1 sequence (Q9NZQ7 19-290): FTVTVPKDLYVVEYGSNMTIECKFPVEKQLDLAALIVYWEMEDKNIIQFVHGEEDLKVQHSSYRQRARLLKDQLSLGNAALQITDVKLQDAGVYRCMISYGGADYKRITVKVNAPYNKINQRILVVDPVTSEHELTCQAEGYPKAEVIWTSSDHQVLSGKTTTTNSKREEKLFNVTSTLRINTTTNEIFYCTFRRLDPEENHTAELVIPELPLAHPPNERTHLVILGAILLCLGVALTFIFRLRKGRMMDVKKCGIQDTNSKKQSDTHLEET
Method in brief: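 Fluorescent PD-1-Ig binding to PD-L1-expressing LK35.2 cells, imaged after washing. Conditions: 1 nM PE-PD-1-Ig, 37 °C, 1 h, RPMI with 10% fetal calf serum.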

[2] = biological target: T2, Human PD-L1/PD-1 (Homo sapiens, UniProt Q9NZQ7); test: HTRF PD-1-Ig/PD-L1-His binding assay (human PD-L1); settings: cluster symbol; read-out: HTRF IC50 cluster
T2 construct: made in house; host or cells: HEK293T
T2 sequence (Q9NZQ7 with tags, fused parts or gaps): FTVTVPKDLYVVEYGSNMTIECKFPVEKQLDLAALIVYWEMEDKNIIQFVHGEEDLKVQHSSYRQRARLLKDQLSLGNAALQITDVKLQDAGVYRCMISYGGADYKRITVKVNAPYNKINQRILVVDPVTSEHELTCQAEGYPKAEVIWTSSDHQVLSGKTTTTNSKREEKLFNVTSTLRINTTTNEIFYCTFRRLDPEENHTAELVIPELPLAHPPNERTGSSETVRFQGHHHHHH
Method in brief: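 Steps: truncated PD-1-Ig and PD-L1-His fusions are incubated in dPBS containing 0.1% (w/v) BSA and 0.05% (v/v) Tween-20. Detection antibodies are then added (Eu cryptate anti-Ig at 1 nM final, APC anti-His at 20 nM final), and time-resolved FRET is measured.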

| SMILES | IC50 [1] [nM] | IC50 [2] [nM] |
| --- | --- | --- |
| CCCC[C@H]1C(=O)N[C@@H](CCCNC(=N)N)C(=O)N[C@H](C(=O)NCC(N)=O)CSCC(=O)N[C@@H](Cc2ccccc2)C(=O)N(C)[C@@H](C)C(=O)N[C@@H](CC(N)=O)C(=O)N2CCC[C@H]2C(=O)N[C@@H](Cc2cnc[nH]2)C(=O)N[C@@H](CC(C)C)C(=O)N(C)CC(=O)N[C@@H](Cc2c[nH]c3ccccc23)C(=O)N[C@@H](CO)C(=O)N(C)[C@@H](Cc2c[nH]c3ccccc23)C(=O)N(C)[C@@H](CCCC)C(=O)N1C [Example 1031] ({CH2CO}-F[NMeA]NPHL[Sar]WS[NMeW][NMeNle][NMeNle]RCG-NH2; thioether N-14) | > 74.3 | > 30.5 |
| CC(C)C[C@@H]1NC(=O)[C@H](Cc2c[nH]cn2)NC(=O)[C@@H]2CCCN2C(=O)[C@H](CC(N)=O)NC(=O)[C@H](C)N(C)C(=O)[C@H](Cc2ccccc2)NC(=O)CSC[C@@H](C(=O)NCC(N)=O)NC(=O)[C@H](CCCNC(=N)N)NC(=O)[C@H](C)N(C)C(=O)[C@H](Cc2ccc(-c3ccccc3)cc2)NC(=O)[C@H](Cc2c[nH]c3ccccc23)NC(=O)[C@H](CO)NC(=O)[C@H](Cc2c[nH]c3ccccc23)NC(=O)CN(C)C1=O [Example 1032] (HELM PEPTIDE1{[O=C(C[*:3])[*:2]].F.[meA].N.P.H.L.[Sar].W.S.W.[O=C([C@H](Cc1ccc(-c2ccccc2)cc1)N[*:1])[*:2]].[meA].R.C.G.[am]}$PEPTIDE1,PEPTIDE1,1:R3-15:R3$$$V2.0) | > 74.3 | > 30.5 |
| CC(C)C[C@@H]1NC(=O)[C@H](Cc2c[nH]cn2)NC(=O)[C@@H]2CCCN2C(=O)[C@H](CC(N)=O)NC(=O)[C@H](C)N(C)C(=O)[C@H](Cc2ccccc2)NC(=O)CSC[C@@H](C(=O)NCC(N)=O)NC(=O)[C@H](CCCNC(=N)N)NC(=O)[C@H](C)N(C)C(=O)[C@H](CNC(=O)C2CCC2)NC(=O)[C@H](Cc2c[nH]c3ccccc23)NC(=O)[C@H](CO)NC(=O)[C@H](Cc2c[nH]c3ccccc23)NC(=O)CN(C)C1=O [Example 1033] ({CH2CO}-F[NMeA]NPHL[Sar]WSW[Dap](Cyclobutanecarbonyl)[NMeA]RCG-NH2; thioether N-14) | > 74.3 | > 30.5 |
| CC(C)C[C@@H]1NC(=O)[C@H](Cc2cnc[nH]2)NC(=O)[C@@H]2CCCN2C(=O)[C@H](CC(N)=O)NC(=O)[C@H](C)N(C)C(=O)[C@H](Cc2ccccc2)NC(=O)CSC[C@@H](C(=O)NCC(N)=O)NC(=O)[C@H](CCCNC(=N)N)NC(=O)[C@H](C)N(C)C(=O)[C@H](CCNC(=O)C2CCC2)NC(=O)[C@H](Cc2c[nH]c3ccccc23)NC(=O)[C@H](CO)NC(=O)[C@H](Cc2c[nH]c3ccccc23)NC(=O)CN(C)C1=O [Example 1034] ({CH2CO}-F[NMeA]NPHL[Sar]WSW[Dab](Cyclobutanecarbonyl)[NMeA]RCG-NH2; thioether N-14) | > 74.3 | > 30.5 |
| CCCC[C@H]1C(=O)N(C)[C@@H](CCCC)C(=O)N[C@@H](CCCNC(=N)N)C(=O)N[C@H](C(=O)NCC(N)=O)CSCC(=O)N[C@@H](Cc2ccc(O)cc2)C(=O)N(C)[C@@H](C)C(=O)N[C@@H](CC(N)=O)C(=O)N2CCC[C@H]2C(=O)N[C@@H](Cc2cnc[nH]2)C(=O)N[C@@H](CC(C)C)C(=O)N2C[C@H](O)C[C@H]2C(=O)N[C@@H](Cc2c[nH]c3ccccc23)C(=O)N[C@@H](CO)C(=O)N[C@@H](Cc2csc3ccccc23)C(=O)N1C [Example 1035] ({CH2CO}-Y[NMeA]NPHL[Hyp]WS[Bta][NMeNle][NMeNle]RCG-NH2; thioether N-14) | 0.158 to 4.71 | 6.76 to 30.3 |
| CCCC[C@H]1C(=O)N(C)[C@@H](CCCC)C(=O)N[C@@H](CCCNC(=N)N)C(=O)N[C@H](C(=O)NCC(N)=O)CSCC(=O)N[C@@H](Cc2ccc(O)cc2)C(=O)N(C)[C@@H](C)C(=O)N[C@@H](CC(N)=O)C(=O)N2CCC[C@H]2C(=O)N[C@@H](Cc2cnc[nH]2)C(=O)N[C@@H](CC(C)C)C(=O)N2CC(F)(F)C[C@H]2C(=O)N[C@@H](Cc2c[nH]c3ccccc23)C(=O)N[C@@H](CO)C(=O)N[C@@H](Cc2csc3ccccc23)C(=O)N1C [Example 1036] ({CH2CO}-Y[NMeA]NPHL[Pro(4,4-F2)]WS[Bta][NMeNle][NMeNle]RCG-NH2; thioether N-14) | 0.158 to 4.71 | 6.76 to 30.3 |
| CCCC[C@H]1C(=O)N(C)[C@@H](CCCC)C(=O)N[C@@H](CCCNC(=N)N)C(=O)N[C@H](C(=O)NCC(N)=O)CSCC(=O)N[C@@H](Cc2ccc(O)cc2)C(=O)N(C)[C@@H](C)C(=O)N[C@@H](CC(N)=O)C(=O)N2CCC[C@H]2C(=O)N[C@@H](Cc2cnc[nH]2)C(=O)N[C@@H](CC(C)C)C(=O)N2C[C@@H](N)C[C@H]2C(=O)N[C@@H](Cc2c[nH]c3ccccc23)C(=O)N[C@@H](CO)C(=O)N[C@@H](Cc2csc3ccccc23)C(=O)N1C [Example 1037] ({CH2CO}-Y[NMeA]NPHL[Pro(4S-NH2)]WS[Bta][NMeNle][NMeNle]RCG-NH2; thioether N-14) | 0.158 to 4.71 | 6.76 to 30.3 |
| CCCC[C@H]1C(=O)N(C)[C@@H](CCCC)C(=O)N[C@@H](CCCNC(=N)N)C(=O)N[C@H](C(=O)NCC(N)=O)CSCC(=O)N[C@@H](Cc2ccccc2)C(=O)N(C)[C@@H](C)C(=O)N[C@@H](CC(N)=O)C(=O)N2CCC[C@H]2C(=O)N[C@@H](Cc2cnc[nH]2)C(=O)N[C@@H](CC(C)C)C(=O)N(C)CC(=O)N[C@@H](Cc2c[nH]c3ccccc23)C(=O)N[C@@H](CO)C(=O)N[C@@H](Cc2c[nH]c3ncccc23)C(=O)N1C [Example 1038] ({CH2CO}-F[NMeA]NPHL[Sar]WS[Trp(7-aza)][NMeNle][NMeNle]RCG-NH2; thioether N-14) | > 74.3 | > 30.5 |

Other lines, results leading:

| IC50 [1] [nM] | IC50 [2] [nM] | SMILES |
| --- | --- | --- |
| 4.78 to 72.9 | > 30.5 | CCCC[C@H]1C(=O)N(C)[C@@H](CCCC)C(=O)N[C@@H](CCCNC(=N)N)C(=O)N[C@H](C(=O)NCC(N)=O)CSCC(=O)N[C@@H](Cc2ccccc2)C(=O)N(C)[C@@H](C)C(=O)N[C@@H](CC(N)=O)C(=O)N2CCC[C@H]2C(=O)N[C@@H](Cc2cnc[nH]2)C(=O)N[C@@H](CC(C)C)C(=O)N(C)CC(=O)N[C@@H](Cc2c[nH]c3ccccc23)C(=O)N[C@@H](CO)C(=O)NC(Cc2c[nH]c3ccc(F)cc23)C(=O)N1C (stereo partly shown) [Example 1039] ({CH2CO}-F[NMeA]NPHL[Sar]WS[ξTrp(5-F)][NMeNle][NMeNle]RCG-NH2; thioether N-14) |
| 0.158 to 4.71 | 6.76 to 30.3 | CCCC[C@H]1C(=O)N(C)[C@@H](CCCC)C(=O)N[C@@H](CCCCN)C(=O)N[C@H](C(=O)NCC(N)=O)CSCC(=O)N[C@@H](Cc2ccc(O)cc2)C(=O)N(C)[C@@H](C)C(=O)N[C@@H](CC(N)=O)C(=O)N2CCC[C@H]2C(=O)N[C@@H](Cc2cnc[nH]2)C(=O)N[C@@H](CC(C)C)C(=O)N2CCC[C@H]2C(=O)N[C@@H](Cc2c[nH]c3ccccc23)C(=O)N[C@@H](CO)C(=O)N[C@@H](Cc2csc3ccccc23)C(=O)N1C [Example 1041] ({CH2CO}-Y[NMeA]NPHLPWS[Bta][NMeNle][NMeNle]KCG-NH2; thioether N-14) |
| 0.158 to 4.71 | 0.385 to 6.74 | CCCC[C@H]1C(=O)N(C)[C@@H](CCCC)C(=O)NC(CCCN)C(=O)N[C@H](C(=O)NCC(N)=O)CSCC(=O)N[C@@H](Cc2ccc(O)cc2)C(=O)N(C)[C@@H](C)C(=O)N[C@@H](CC(N)=O)C(=O)N2CCCC2C(=O)N[C@@H](Cc2cnc[nH]2)C(=O)N[C@@H](CC(C)C)C(=O)N2CCC[C@H]2C(=O)N[C@@H](Cc2c[nH]c3ccccc23)C(=O)N[C@@H](CO)C(=O)N[C@@H](Cc2csc3ccccc23)C(=O)N1C (stereo partly shown) [Example 1042] ({CH2CO}-Y[NMeA]N[ξP]HLPWS[Bta][NMeNle][NMeNle][ξOrn]CG-NH2; thioether N-14) |
| 4.78 to 72.9 | 6.76 to 30.3 | C=CCCCC[C@H]1C(=O)N(C)[C@@H](CCCCC=C)C(=O)N[C@@H](CCCNC(=N)N)C(=O)N[C@H](C(=O)NCC(N)=O)CSCC(=O)N[C@@H](Cc2ccccc2)C(=O)N(C)[C@@H](C)C(=O)N[C@@H](CC(N)=O)C(=O)N2CCC[C@H]2C(=O)N[C@@H](Cc2cnc[nH]2)C(=O)N[C@@H](CC(C)C)C(=O)N(C)CC(=O)N[C@@H](Cc2c[nH]c3ccccc23)C(=O)N[C@@H](CO)C(=O)N[C@@H](Cc2c[nH]c3ccccc23)C(=O)N1C [Example 1043] |
| > 74.3 | > 30.5 | CCCC[C@H]1C(=O)N(C)[C@@H](CCCC)C(=O)N[C@@H](CCCNC(=N)N)C(=O)N[C@H](C(=O)NCC(N)=O)CSCC(=O)N[C@@H](Cc2ccc(C(F)F)cc2)C(=O)N(C)[C@@H](C)C(=O)N[C@@H](CC(N)=O)C(=O)N2CCC[C@H]2C(=O)N[C@@H](Cc2cnc[nH]2)C(=O)N[C@@H](CC(C)C)C(=O)N2CCC[C@H]2C(=O)N[C@@H](Cc2c[nH]c3ccccc23)C(=O)N[C@@H](CO)C(=O)N[C@@H](Cc2csc3ccccc23)C(=O)N1C [Example 1044] ({CH2CO}-[Phe(4-CHF2)][NMeA]NPHLPWS[Bta][NMeNle][NMeNle]RCG-NH2; thioether N-14) |
| 4.78 to 72.9 | 6.76 to 30.3 | CCCC[C@H]1C(=O)N(C)[C@@H](CCCC)C(=O)N[C@@H](CCCNC(=N)N)C(=O)N[C@H](C(=O)NCC(N)=O)CSCC(=O)N[C@@H](Cc2ccc(O)cc2)C(=O)N(C)[C@@H](C)C(=O)N[C@@H](CC(N)=O)C(=O)N2C[C@@H](N)CC2C(=O)N[C@@H](Cc2cnc[nH]2)C(=O)N[C@@H](CC(C)C)C(=O)N2CCC[C@H]2C(=O)N[C@@H](Cc2c[nH]c3ccccc23)C(=O)N[C@@H](CO)C(=O)NC(Cc2csc3ccccc23)C(=O)N1C (stereo partly drawn) [Example 1046] ({CH2CO}-Y[NMeA]N[ξPro(4S-NH2)]HLPWS[ξBta][NMeNle][NMeNle]RCG-NH2; thioether N-14) |
